± gives the expanded uncertainty stated by the source.
Test: mn = molality of the nth substance listed, in mol/kg
Details: Liquid, Vibrating tube method

[Br-].[Li+] [lithium bromide] + CCO
Details	mass density [kg/m3]
293.15 K, 1024 kPa, m1 = 2.833	956.08 ± 1.9
293.15 K, 1034 kPa, m1 = 0.9499	850.27 ± 1.7
293.15 K, 5015 kPa, m1 = 3.368	986.33 ± 2
293.15 K, 5029 kPa, m1 = 0.9499	853.2 ± 1.7
293.15 K, 5201 kPa, m1 = 2.833	959.11 ± 1.9
293.15 K, 10003 kPa, m1 = 0.2335	812.89 ± 1.6
293.15 K, 10032 kPa, m1 = 2.833	962.5 ± 1.9
293.15 K, 10041 kPa, m1 = 0.9499	856.81 ± 1.7
293.15 K, 10061 kPa, m1 = 0.5972	835.46 ± 1.7
293.15 K, 19924 kPa, m1 = 0.9499	863.69 ± 1.7
293.15 K, 20003 kPa, m1 = 0.2335	820.16 ± 1.7
293.15 K, 20038 kPa, m1 = 3.368	996.51 ± 2
293.15 K, 29895 kPa, m1 = 0.9499	870.31 ± 1.8
293.15 K, 29978 kPa, m1 = 3.368	1002.69 ± 2
293.15 K, 29993 kPa, m1 = 0.5972	849.31 ± 1.7
293.15 K, 39912 kPa, m1 = 0.5972	855.69 ± 1.7
293.15 K, 39956 kPa, m1 = 0.2335	833.59 ± 1.7
293.15 K, 39985 kPa, m1 = 2.833	981.35 ± 2
293.15 K, 40003 kPa, m1 = 0.9499	876.7 ± 1.8
293.15 K, 49936 kPa, m1 = 3.368	1014.01 ± 2
293.15 K, 49993 kPa, m1 = 0.5972	861.83 ± 1.8
293.15 K, 50002 kPa, m1 = 0.9499	882.7 ± 1.8
293.15 K, 59924 kPa, m1 = 0.2335	845.57 ± 1.8
293.15 K, 60001 kPa, m1 = 2.833	992.24 ± 2
293.15 K, 60032 kPa, m1 = 0.9499	888.39 ± 1.8
293.15 K, 70032 kPa, m1 = 2.833	997.31 ± 2
293.15 K, 70102 kPa, m1 = 0.9499	893.78 ± 1.8
293.15 K, 79914 kPa, m1 = 1.462	928.13 ± 1.9
293.15 K, 79926 kPa, m1 = 0.2335	856.13 ± 1.8
293.15 K, 79956 kPa, m1 = 0.9499	898.74 ± 1.8
293.15 K, 79956 kPa, m1 = 2.833	1002.13 ± 2
293.15 K, 80104 kPa, m1 = 3.368	1029.17 ± 2.1
293.15 K, 89245 kPa, m1 = 0.9499	903.13 ± 1.9
293.15 K, 89926 kPa, m1 = 0.5972	882.72 ± 1.8
293.15 K, 89954 kPa, m1 = 0.2335	860.88 ± 1.8
293.15 K, 89958 kPa, m1 = 2.833	1006.83 ± 2
293.15 K, 89963 kPa, m1 = 1.462	932.84 ± 1.9
293.15 K, 89989 kPa, m1 = 3.368	1033.84 ± 2.1
293.15 K, 99824 kPa, m1 = 1.462	937.16 ± 1.9
293.15 K, 99895 kPa, m1 = 3.368	1038.46 ± 2.1
293.15 K, 99965 kPa, m1 = 0.9499	907.85 ± 1.9
293.15 K, 99965 kPa, m1 = 2.833	1011.42 ± 2
293.15 K, 99986 kPa, m1 = 0.2335	865.27 ± 1.8
293.16 K, 1250 kPa, m1 = 3.368	983.6 ± 2
293.16 K, 19905 kPa, m1 = 0.5972	842.47 ± 1.7
293.16 K, 29938 kPa, m1 = 2.833	975.41 ± 1.9
293.16 K, 39654 kPa, m1 = 3.368	1008.34 ± 2
293.16 K, 69784 kPa, m1 = 0.2335	850.96 ± 1.8
293.16 K, 99971 kPa, m1 = 0.5972	887.12 ± 1.9
293.17 K, 1430 kPa, m1 = 2.272	926.33 ± 1.9
293.17 K, 1504 kPa, m1 = 0.5972	829.09 ± 1.7
293.17 K, 4902 kPa, m1 = 2.272	928.89 ± 1.9
293.17 K, 4938 kPa, m1 = 0.5972	831.68 ± 1.7
293.17 K, 10030 kPa, m1 = 2.272	932.58 ± 1.9
293.17 K, 19789 kPa, m1 = 2.272	939.24 ± 1.9
293.17 K, 29946 kPa, m1 = 2.272	945.75 ± 1.9
293.17 K, 40161 kPa, m1 = 2.272	951.9 ± 1.9
293.17 K, 49963 kPa, m1 = 2.272	957.45 ± 1.9
293.17 K, 89964 kPa, m1 = 2.272	977.54 ± 2
293.17 K, 99958 kPa, m1 = 2.272	982.14 ± 2
293.18 K, 60025 kPa, m1 = 2.272	962.8 ± 1.9
293.18 K, 69979 kPa, m1 = 2.272	967.88 ± 1.9
293.19 K, 79838 kPa, m1 = 2.272	972.67 ± 2
298.09 K, 1141 kPa, m1 = 0.5972	824.73 ± 1.6
298.1 K, 99589 kPa, m1 = 2.272	978.52 ± 2
298.11 K, 60144 kPa, m1 = 1.462	914.77 ± 1.9
298.12 K, 39801 kPa, m1 = 1.462	902.81 ± 1.8
298.12 K, 39933 kPa, m1 = 2.272	947.93 ± 1.9
298.12 K, 49922 kPa, m1 = 1.462	908.93 ± 1.8
298.12 K, 49993 kPa, m1 = 2.272	953.69 ± 1.9
298.12 K, 60039 kPa, m1 = 2.272	959.15 ± 1.9
298.12 K, 99737 kPa, m1 = 3.368	1034.98 ± 2.1
298.13 K, 5308 kPa, m1 = 1.462	879.29 ± 1.8
298.13 K, 59998 kPa, m1 = 0.5972	864.41 ± 1.8
298.13 K, 69983 kPa, m1 = 2.272	964.25 ± 1.9
298.13 K, 80661 kPa, m1 = 3.368	1025.85 ± 2.1
298.13 K, 89925 kPa, m1 = 2.272	973.93 ± 2
298.13 K, 89985 kPa, m1 = 3.368	1030.35 ± 2.1
298.14 K, 5004 kPa, m1 = 2.833	954.84 ± 1.9
298.14 K, 20004 kPa, m1 = 0.2335	816.39 ± 1.6
298.14 K, 30021 kPa, m1 = 2.833	971.59 ± 1.9
298.14 K, 70023 kPa, m1 = 2.833	993.85 ± 2
298.14 K, 79924 kPa, m1 = 0.2335	853.09 ± 1.8
298.15 K, 1023 kPa, m1 = 2.833	951.93 ± 1.9
298.15 K, 1045 kPa, m1 = 0.9499	845.75 ± 1.7
298.15 K, 1204 kPa, m1 = 0.2335	801.78 ± 1.6
298.15 K, 5002 kPa, m1 = 0.2335	805.08 ± 1.6
298.15 K, 5004 kPa, m1 = 0.9499	848.93 ± 1.7
298.15 K, 5221 kPa, m1 = 0.5972	827.89 ± 1.7
298.15 K, 10024 kPa, m1 = 0.9499	852.82 ± 1.7
298.15 K, 10064 kPa, m1 = 0.2335	808.99 ± 1.6
298.15 K, 19935 kPa, m1 = 2.833	965.15 ± 1.9
298.15 K, 19956 kPa, m1 = 0.9499	860.13 ± 1.7
298.15 K, 29124 kPa, m1 = 0.2335	822.86 ± 1.7
298.15 K, 29945 kPa, m1 = 0.9499	866.97 ± 1.8
298.15 K, 29950 kPa, m1 = 2.272	941.76 ± 1.9
298.15 K, 29993 kPa, m1 = 0.5972	845.75 ± 1.7
298.15 K, 29993 kPa, m1 = 1.462	896.53 ± 1.8
298.15 K, 39784 kPa, m1 = 0.9499	873.28 ± 1.8
298.15 K, 39830 kPa, m1 = 0.5972	852.23 ± 1.7
298.15 K, 39845 kPa, m1 = 2.833	977.51 ± 2
298.15 K, 49956 kPa, m1 = 0.2335	836.44 ± 1.7
298.15 K, 49963 kPa, m1 = 0.5972	858.53 ± 1.8
298.15 K, 50012 kPa, m1 = 0.9499	879.42 ± 1.8
298.15 K, 59968 kPa, m1 = 2.833	988.68 ± 2
